According to patent EP3173083A1, “IN VIVO ANTIANGIOGENIC EFFECT OF A PALLADIUM COMPLEX” (Istanbul Universitesi Rektorlugu, priority 2015, dated 2017):

System: CAM
Assay: chorioallantoic membrane (CAM) model of antiangiogenic effect
Type: in vivo, chicken
Settings: for Score: average antiangiogenic score on CAM, evaluated by stereomicroscope 24 hours after pellet application; for antiangiogenic effect on CAM: effect class by scoring system of Table 1, 50 µg/pellet
From the text: In a study performed on the antiangiogenic effect of palladium complex of the invention, a method which is named chorioallantoic membrane (CAM) model is used. The model in question is a method developed by the embryologists more than 50 years ago, has a broad area of usage in embryonic researches (Auerbach, R., Lewis, R., Shinners, B., Kubai, L., Akhtar, N., 2003. Angiogenesis assays: a critical overview. Clin. Chem., 49(1): 32-40). Since 1956, the model is used in cancer and metastasis researches. The model has been started to be used in angiogenesis studies by Folkman in 1976. CAM is a non-embryo membrane which is formed by the merger of chorion and allantois as a result of an incubation of four-days. Although it is widely used in embryonic researches, it also has a broad range of usage in cancer and metastasis researches (Ribatti, D., 2010. The inefficacy of antiangiogenic therapies. J. Angiogenes. Res., 2:27. doi: 10.1186/2040-2384-2-27). […] The method is one of the most commonly used methods since it is quick, cheap and semi quantitative and enable scanning of many new agents (Cimpean, A.M., Ribatti, D., Raica, M., 2008. The chick embryo chorioallantoic membrane as a model to study tumor metastasis. Angiogenesis, 11(4): 311-319; Ribatti, D., 2008. Chick embryo chorioallantoic membrane as a useful tool to study angiogenesis. Int. Rev. Cell Mol. Biol., 270: 181-224).
The experiment Protocol which was reported in 1967 by D'Arcy and Howard and in 2002 by Bürgermeister and his colleagues was used (D'Arcy, P.F., Howard, E.M.,1967. A new anti-inflammatory test, utilizing the chorio-allantoic membrane of the chick embryo. Br. J. Pharmacol. Chemother., 29(3): 378-38; Bürgermeister, J., Paper, D.H., Vogl, H., Linhardt, R.J., Franz, G., 2002. LaPSvS1, a (1-->3)-beta-galactan sulfate and its effect on angiogenesis in vivo and in vitro. Carbohydr. Res., 337(16): 1459-1466).
The palladium complex, 5 mg/ml (50 µg /pellet), the standard control agents sodium dodecyl sulfate (SDS), cortisone, prednisone, (±)-thalidomide has been suspended in 2,5 % (w/v) agar at a final concentration of 50 µg /pellet by heating (60 °C<). Then, 10 µl is taken from this suspension and provided to become frozen pellet at room temperature by being applied on stainless steel cylinder supports with a diameter 5 mm. Pellets are applied onto the surface of CAM.
The procedure for CAM experiment is given in Figure 1 (Kiyan, H.T., 2010. Baz ? Hypericum Türlerinin Uçucu Yaǧ Bile ? imleri ve Antianjiyojenik Aktiviteleri, Yüksek Lisans Tezi, Anadolu Üniversitesi, Saǧl ? k Bilimleri Enstitüsü, Farmakognozi Program ? , 19p). Accordingly, fertilized chicken eggs to be used in experiment are incubated at 36,5 °C and in an incubator with 80% relative humidity (climatization cabin) at horizontal position for 72 hours before the experiment. In this period, eggs were carefully upturned time to time. At the end of the incubation period, firstly, from the bottom side of eggs with the help of the sterile injectors, 10-15 ml of albumin (egg white) is slowly removed and then from the top side of eggs (more upright and sharp part), shell and membrane are carefully removed with the help of the forceps (Figure-1, A). Living and developing embryo CAM immediately taken under protection with a stretch film, is waited again at 36,5 °C and in an incubator with 80% relative humidity for another 72 hours (Figure-1, B). When diameter of the CAM is detected to be approximately 2 cm, one piece of freshly prepared sample pellet for each egg is placed into the capillaries on the CAM (Figure-1, C). 15 pellets from each material is applied on CAM of an equal number of eggs and covered with stretch film. Before the evaluations, eggs were incubated for another 24 hours in such a way that pellets are placed in under specified conditions. […]

SMILES | Score (50 µg/pellet) | antiangiogenic effect on CAM | toxic or irritant effect on CAM (50 µg/pellet) | Irritation (%) (CAM, 50 µg/pellet, 24 hours after pellet application)
O=C1CCC(N2C(=O)c3ccccc3C2=O)C(=O)N1 (racemic) [(±)-Thalidomide] | 0.9 ± 0.2 | strong |  | 
CCCCCCCCCCCCOS(=O)(=O)[O-].[Na+] [Sodium dodecyl sulphate (SDS), Sodium dodecyl sulphate] | 0.1 ± 0.1 |  | irritant effect | 87 ± 5
C[C@]12CCC(=O)C=C1CC[C@@H]1[C@@H]2C(=O)C[C@@]2(C)[C@H]1CC[C@]2(O)C(=O)CO [Cortisone] | 1.2 ± 0.2 | very strong |  | 
O=C1c2ccccc2S(=O)(=O)[N]1[Pd-2]12[n+]3ccccc3-c3cccc([n+]31)-c1cccc[n+]12 [Palladium complex, [Pd(sac)(terpy)] (sac)•4H2O (sac=saccharinate and terpy=2,2':6',2"-terpyridine)]] |  | very strong | no toxic or irritant effect | 
C[C@]12C=CC(=O)C=C1CC[C@@H]1[C@@H]2C(=O)C[C@@]2(C)[C@H]1CC[C@]2(O)C(=O)CO [Prednisone] | 0.9 ± 0.7 | strong |  | 
